The values that follow come from patent publication EP1018299A2, “Plant treatment agents” (BAYER AG, priority 1992, dated 1994).

The assay is described as follows: UDOS (unilateral desorption from the outer surface): effect of accelerators on the mobility of 14C-labelled 2,4-D in isolated cuticles. The conditions noted are these: Abb. 11; for Zeitabhängigkeit der Effekte: effects increased with time; for Wirkungen (Effekt auf die Mobilität von 2,4-D): compared with Heptanol, Octanol, Nonanol and Decanol. The format is in vitro ADME, Citrus.

The structures appear in SMILES notation.

In the case of `CCCCCCCCCCCCO` [Dodecanol], the “Zeitabhängigkeit der Effekte” value is “stark zeitabhängig” and the “Wirkungen (Effekt auf die Mobilität von 2,4-D)” value is given as “deutlich niedriger”.
On to `CCCCCCO` [Hexanol], for which the “Zeitabhängigkeit der Effekte” value is on record as “stark zeitabhängig” and the “Wirkungen (Effekt auf die Mobilität von 2,4-D)” value is listed as “deutlich niedriger”.
